Assay results published in patent US12139477B2, “Compounds, salts thereof and methods for treatment of diseases” (ACADIA PHARMACEUTICALS INC., priority 2017, dated 2024).

Assays:
hERG channel = biological target: T1, hERG channel (Homo sapiens, UniProt Q12809); assay: hERG assay, whole cell recordings in CHO cells (AVIVA); type: cell-based; settings: CHO cells stably expressing hERG, pH 7.4
T1 construct: host or cells: CHO cells, stably transfected
Procedure, shortened: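 Whole-cell voltage clamp of CHO cells stably expressing hERG, held at −80 mV; steps to +20 mV for 5 s, then −50 mV for 5 s, with tail current measured against a −50 mV baseline, every 12 s. Compounds applied in 4 additions until steady state (max 12 min), vs 0.1% DMSO vehicle baseline.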

hERG potassium channel = hERG potassium channel (Homo sapiens, UniProt Q12809); assay: hERG manual patch clamp, HEK293 cells (CR-CLE)
Sequence of hERG potassium channel (Q12809 whole entry): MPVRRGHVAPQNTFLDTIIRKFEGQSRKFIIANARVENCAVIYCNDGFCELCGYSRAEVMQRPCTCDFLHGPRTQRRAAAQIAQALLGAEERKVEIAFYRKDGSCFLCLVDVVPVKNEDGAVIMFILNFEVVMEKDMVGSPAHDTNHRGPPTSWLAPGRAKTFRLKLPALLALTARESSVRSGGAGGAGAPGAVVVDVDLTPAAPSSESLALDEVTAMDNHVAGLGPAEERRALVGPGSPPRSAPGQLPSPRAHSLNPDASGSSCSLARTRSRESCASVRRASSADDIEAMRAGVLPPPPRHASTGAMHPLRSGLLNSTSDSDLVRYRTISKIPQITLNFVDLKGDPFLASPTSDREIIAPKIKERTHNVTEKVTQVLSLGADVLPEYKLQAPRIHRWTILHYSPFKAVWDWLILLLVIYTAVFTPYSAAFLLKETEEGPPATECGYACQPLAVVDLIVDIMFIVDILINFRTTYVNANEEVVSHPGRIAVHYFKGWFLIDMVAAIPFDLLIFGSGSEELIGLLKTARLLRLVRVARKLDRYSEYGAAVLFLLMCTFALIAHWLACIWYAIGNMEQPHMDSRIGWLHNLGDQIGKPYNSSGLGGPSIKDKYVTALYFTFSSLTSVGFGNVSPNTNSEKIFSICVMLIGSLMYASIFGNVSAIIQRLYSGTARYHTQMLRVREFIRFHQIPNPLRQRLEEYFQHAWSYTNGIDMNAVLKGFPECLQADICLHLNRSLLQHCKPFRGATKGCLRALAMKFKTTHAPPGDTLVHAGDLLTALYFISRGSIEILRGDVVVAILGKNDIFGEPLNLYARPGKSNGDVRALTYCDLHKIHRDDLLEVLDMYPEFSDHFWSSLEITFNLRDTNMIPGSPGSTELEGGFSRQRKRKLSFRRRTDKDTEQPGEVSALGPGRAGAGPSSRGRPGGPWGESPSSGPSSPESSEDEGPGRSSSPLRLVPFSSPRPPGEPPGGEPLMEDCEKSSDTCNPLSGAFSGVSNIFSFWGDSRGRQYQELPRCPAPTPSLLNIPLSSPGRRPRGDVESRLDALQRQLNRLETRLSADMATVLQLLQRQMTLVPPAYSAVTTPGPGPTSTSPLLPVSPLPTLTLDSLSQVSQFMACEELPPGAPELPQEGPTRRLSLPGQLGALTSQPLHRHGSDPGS
Method: Each cell acted as its own control.
Temperature was measured using a thermistor probe in the recording chamber.

5HT2A = 5HT2A (Homo sapiens, UniProt P28223); assay: Receptor Selection and Amplification (R-SAT) functional assay; type: cell-based; parameters: expressed in transfected cells; host or cells: NIH3T3 cells, pSI mammalian expression vector; settings: NIH3T3 cells; Ki from IC50 by Cheng and Prussoff; read-out: 5-HT2a (pKi) (R-SAT) (converted)
Sequence of 5HT2A (P28223 whole entry): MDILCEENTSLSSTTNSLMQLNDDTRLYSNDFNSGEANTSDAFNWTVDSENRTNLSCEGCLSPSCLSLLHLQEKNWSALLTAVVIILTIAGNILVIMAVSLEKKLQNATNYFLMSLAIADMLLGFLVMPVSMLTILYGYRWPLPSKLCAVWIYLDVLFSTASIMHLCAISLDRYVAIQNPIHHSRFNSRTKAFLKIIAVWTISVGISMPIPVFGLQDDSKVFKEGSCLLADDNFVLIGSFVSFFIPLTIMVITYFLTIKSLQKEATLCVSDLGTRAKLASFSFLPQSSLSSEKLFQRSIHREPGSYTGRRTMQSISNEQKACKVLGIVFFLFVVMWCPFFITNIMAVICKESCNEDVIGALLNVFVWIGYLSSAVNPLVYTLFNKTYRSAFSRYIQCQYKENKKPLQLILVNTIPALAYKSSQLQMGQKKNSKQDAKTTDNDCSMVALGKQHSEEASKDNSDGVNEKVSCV
Description: Receptor Selection and Amplification (R-SAT) Assays. […] The IC50 determined in the RSAT assay was converted into a Ki value using the method of Cheng and Prussoff, Biochem Pharmacol., 1973 Dec. 1; 22(23):3099-108. pKi is the negative of the log(Ki).

T1 sequence (Q12809 whole entry): as the sequence (Q12809 whole entry) above

| SMILES | inhibition at 1 µM (hERG channel) [%] | IC50 (hERG potassium channel) [nM] | Ki (5HT2A) [nM] |
| --- | --- | --- | --- |
| CC(C)COc1ccc(CNC(=O)N(Cc2ccc(F)cc2F)C2CCN(C)CC2)cc1 [Example 3, 1-[(2,4-difluorophenyl)methyl]-1-(1-methylpiperidin-4-yl)-3-{[4-(2-methylpropoxy)phenyl]methyl}urea] | 33 | 500 | 1.26 |
| CC(C)Oc1ccc(CNC(=O)N(Cc2ccc(F)cc2F)C2CCN(C)CC2)cc1 [Example 5, 1-[(2,4-difluorophenyl)methyl]-1-(1-methylpiperidin-4-yl)-3-{[4-(propan-2-yloxy)phenyl]methyl}urea] | 29 | 1800 | 1 |
| CN1CCC(N(Cc2ccc(F)cc2F)C(=O)NCc2ccc(OC3CC3)cc2)CC1 [Example 17, 3-[(4-cyclopropoxyphenyl)methyl]-1-[(2,4-difluorophenyl)methyl]-1-(1-methylpiperidin-4-yl)urea] | 32 | 1800 | 0.398 |
